{"source": "paper PMC6886798", "about": "“Expression of myeloid Src-family kinases is associated with poor prognosis in AML and influences Flt3-ITD kinase inhibitor acquired resistance” (PLoS ONE, 2019)", "assay_in_all_cases": "KINOMEscan", "format_in_all_cases": "binding", "details_in_all_cases": "1.0 µM", "key": {"PHKG1": {"target": "T1, PHKG1 (Homo sapiens, UniProt Q16816)", "T1 construct": "purchased Eurofins/DiscoverX KINOMEscan scanMAX", "experimental": "(§1) Kinase retention to the immobilized ligand is then measured using quantitative real-time PCR for each kinase-specific DNA barcode."}, "PRKCE": {"target": "T2, PRKCE (Homo sapiens, UniProt Q02156)", "T2 construct": "purchased Eurofins/DiscoverX KINOMEscan scanMAX", "experimental": "as §1"}, "MEK4": {"target": "T3, MEK4 (Homo sapiens, UniProt P45985)", "T3 construct": "purchased Eurofins/DiscoverX KINOMEscan scanMAX", "experimental": "as §1"}, "PRKG2": {"target": "T4, PRKG2 (Homo sapiens, UniProt Q13237)", "T4 construct": "purchased Eurofins/DiscoverX KINOMEscan scanMAX", "experimental": "as §1"}, "WEE2": {"target": "T5, WEE2 (Homo sapiens, UniProt P0C1S8)", "T5 construct": "DNA tag (qPCR barcode); purchased Eurofins/DiscoverX KINOMEscan scanMAX", "experimental": "as §1"}, "MEK1": {"target": "T6, MEK1 (Homo sapiens, UniProt Q02750)", "T6 construct": "purchased Eurofins/DiscoverX KINOMEscan scanMAX", "experimental": "as §1"}, "CSNK1A1L": {"target": "T7, CSNK1A1L (Homo sapiens, UniProt Q8N752)", "T7 construct": "purchased Eurofins/DiscoverX KINOMEscan scanMAX", "experimental": "as §1"}, "TYRO3": {"target": "T8, TYRO3 (Homo sapiens, UniProt Q06418)", "T8 construct": "DNA tag (qPCR barcode); purchased Eurofins/DiscoverX KINOMEscan scanMAX", "experimental": "as §1"}, "JNK3": {"target": "T9, JNK3 (Homo sapiens, UniProt P53779)", "T9 construct": "purchased Eurofins/DiscoverX KINOMEscan scanMAX", "experimental": "as §1"}, "AURKB": {"target": "T10, AURKB (Homo sapiens, UniProt Q96GD4)", "T10 construct": "purchased Eurofins/DiscoverX KINOMEscan scanMAX", "experimental": "as §1"}, "[1]": {"target": "T11, ABL1(F317I)-nonphosphorylated (Homo sapiens, UniProt P00519, F317I)", "T11 construct": "purchased Eurofins/DiscoverX KINOMEscan scanMAX", "experimental": "as §1"}, "MAP4K2": {"target": "T12, MAP4K2 (Homo sapiens, UniProt Q12851)", "T12 construct": "purchased Eurofins/DiscoverX KINOMEscan scanMAX", "experimental": "as §1"}, "PIM3": {"target": "T13, PIM3 (Homo sapiens, UniProt Q86V86)", "T13 construct": "purchased Eurofins/DiscoverX KINOMEscan scanMAX", "experimental": "as §1"}, "p38-alpha": {"target": "T14, p38-alpha (Homo sapiens, UniProt Q16539)", "T14 construct": "purchased Eurofins/DiscoverX KINOMEscan scanMAX", "experimental": "as §1"}, "CDC2L1": {"target": "T15, CDC2L1 (Homo sapiens, UniProt P21127)", "T15 construct": "purchased Eurofins/DiscoverX KINOMEscan scanMAX", "experimental": "as §1"}, "SGK3": {"target": "T16, SGK3 (Homo sapiens, UniProt Q96BR1)", "T16 construct": "purchased Eurofins/DiscoverX KINOMEscan scanMAX", "experimental": "as §1"}, "ZAP70": {"target": "T17, ZAP70 (Homo sapiens, UniProt P43403)", "T17 construct": "purchased Eurofins/DiscoverX (KINOMEscan scanMAX service)", "experimental": "as §1"}, "MRCKB": {"target": "T18, MRCKB (Homo sapiens, UniProt Q9Y5S2)", "T18 construct": "purchased Eurofins/DiscoverX KINOMEscan scanMAX", "experimental": "as §1"}, "AURKC": {"target": "T19, AURKC (Homo sapiens, UniProt Q9UQB9)", "T19 construct": "purchased Eurofins/DiscoverX KINOMEscan scanMAX", "experimental": "as §1"}, "PKMYT1": {"target": "T20, PKMYT1 (Homo sapiens, UniProt Q99640)", "T20 construct": "purchased Eurofins/DiscoverX KINOMEscan scanMAX", "experimental": "as §1"}, "EIF2AK1": {"target": "T21, EIF2AK1 (Homo sapiens, UniProt Q9BQI3)", "T21 construct": "purchased Eurofins/DiscoverX KINOMEscan scanMAX", "experimental": "as §1"}, "MST3": {"target": "T22, MST3 (Homo sapiens, UniProt Q9Y6E0)", "T22 construct": "purchased Eurofins/DiscoverX KINOMEscan scanMAX", "experimental": "as §1"}, "PDGFRB": {"target": "T23, PDGFRB (Homo sapiens, UniProt P09619)", "T23 construct": "purchased Eurofins/DiscoverX KINOMEscan scanMAX", "experimental": "as §1"}, "AKT2": {"target": "T24, AKT2 (Homo sapiens, UniProt P31751)", "T24 construct": "purchased Eurofins/DiscoverX KINOMEscan scanMAX", "experimental": "as §1"}, "TNK2": {"target": "T25, TNK2 (Homo sapiens, UniProt Q07912)", "T25 construct": "purchased Eurofins/DiscoverX KINOMEscan scanMAX", "experimental": "as §1"}, "LATS1": {"target": "T26, LATS1 (Homo sapiens, UniProt O95835)", "T26 construct": "purchased Eurofins/DiscoverX KINOMEscan scanMAX", "experimental": "as §1"}, "TLK2": {"target": "T27, TLK2 (Homo sapiens, UniProt Q86UE8)", "T27 construct": "purchased Eurofins/DiscoverX KINOMEscan scanMAX", "experimental": "as §1"}, "[2]": {"target": "T28, ABL1(F317L)-phosphorylated (Homo sapiens, UniProt P00519, F317L)", "T28 construct": "purchased Eurofins/DiscoverX KINOMEscan scanMAX", "experimental": "as §1"}, "BRAF(V600E)": {"target": "T29, BRAF(V600E) (Homo sapiens, UniProt P15056, V600E)", "T29 construct": "purchased Eurofins/DiscoverX KINOMEscan scanMAX", "experimental": "as §1"}, "FLT1": {"target": "T30, FLT1 (Homo sapiens, UniProt P17948)", "T30 construct": "purchased Eurofins/DiscoverX KINOMEscan scanMAX", "T30 sequence (P17948 27-1338)": "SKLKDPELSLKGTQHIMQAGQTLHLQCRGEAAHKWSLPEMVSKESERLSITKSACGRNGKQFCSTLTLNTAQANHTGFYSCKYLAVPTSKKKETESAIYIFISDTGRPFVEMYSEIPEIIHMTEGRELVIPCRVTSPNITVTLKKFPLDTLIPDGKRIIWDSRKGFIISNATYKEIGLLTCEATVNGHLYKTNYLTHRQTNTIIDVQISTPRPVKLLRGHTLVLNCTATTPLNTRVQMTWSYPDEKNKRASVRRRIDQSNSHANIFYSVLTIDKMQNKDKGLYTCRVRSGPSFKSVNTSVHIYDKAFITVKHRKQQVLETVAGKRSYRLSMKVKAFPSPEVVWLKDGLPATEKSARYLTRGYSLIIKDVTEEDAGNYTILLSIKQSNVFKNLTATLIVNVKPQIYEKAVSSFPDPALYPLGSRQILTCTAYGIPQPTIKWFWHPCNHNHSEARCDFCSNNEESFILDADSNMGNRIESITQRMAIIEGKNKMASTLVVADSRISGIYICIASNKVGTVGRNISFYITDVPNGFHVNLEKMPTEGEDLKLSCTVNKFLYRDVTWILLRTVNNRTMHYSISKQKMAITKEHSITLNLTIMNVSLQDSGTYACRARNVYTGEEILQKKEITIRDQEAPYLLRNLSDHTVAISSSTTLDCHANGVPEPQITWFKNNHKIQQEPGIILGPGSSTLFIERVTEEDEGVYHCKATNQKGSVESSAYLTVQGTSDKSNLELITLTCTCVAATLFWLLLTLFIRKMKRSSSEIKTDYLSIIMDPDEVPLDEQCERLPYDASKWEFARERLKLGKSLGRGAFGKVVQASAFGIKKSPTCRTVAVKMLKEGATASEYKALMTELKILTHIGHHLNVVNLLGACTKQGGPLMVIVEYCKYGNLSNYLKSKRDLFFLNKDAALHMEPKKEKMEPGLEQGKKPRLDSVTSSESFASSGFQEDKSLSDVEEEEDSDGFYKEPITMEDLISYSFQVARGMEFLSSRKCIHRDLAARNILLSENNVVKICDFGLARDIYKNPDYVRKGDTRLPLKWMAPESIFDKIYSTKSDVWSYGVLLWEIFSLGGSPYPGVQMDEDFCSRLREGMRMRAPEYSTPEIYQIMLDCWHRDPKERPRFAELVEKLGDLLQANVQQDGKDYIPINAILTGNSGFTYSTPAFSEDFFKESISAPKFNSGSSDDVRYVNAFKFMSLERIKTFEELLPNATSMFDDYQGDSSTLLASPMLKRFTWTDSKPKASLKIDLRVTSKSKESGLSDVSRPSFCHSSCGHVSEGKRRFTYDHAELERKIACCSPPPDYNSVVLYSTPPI", "experimental": "as §1"}, "LIMK2": {"target": "T31, LIMK2 (Homo sapiens, UniProt P53671)", "T31 construct": "purchased Eurofins/DiscoverX KINOMEscan scanMAX", "T31 sequence (P53671 whole entry)": "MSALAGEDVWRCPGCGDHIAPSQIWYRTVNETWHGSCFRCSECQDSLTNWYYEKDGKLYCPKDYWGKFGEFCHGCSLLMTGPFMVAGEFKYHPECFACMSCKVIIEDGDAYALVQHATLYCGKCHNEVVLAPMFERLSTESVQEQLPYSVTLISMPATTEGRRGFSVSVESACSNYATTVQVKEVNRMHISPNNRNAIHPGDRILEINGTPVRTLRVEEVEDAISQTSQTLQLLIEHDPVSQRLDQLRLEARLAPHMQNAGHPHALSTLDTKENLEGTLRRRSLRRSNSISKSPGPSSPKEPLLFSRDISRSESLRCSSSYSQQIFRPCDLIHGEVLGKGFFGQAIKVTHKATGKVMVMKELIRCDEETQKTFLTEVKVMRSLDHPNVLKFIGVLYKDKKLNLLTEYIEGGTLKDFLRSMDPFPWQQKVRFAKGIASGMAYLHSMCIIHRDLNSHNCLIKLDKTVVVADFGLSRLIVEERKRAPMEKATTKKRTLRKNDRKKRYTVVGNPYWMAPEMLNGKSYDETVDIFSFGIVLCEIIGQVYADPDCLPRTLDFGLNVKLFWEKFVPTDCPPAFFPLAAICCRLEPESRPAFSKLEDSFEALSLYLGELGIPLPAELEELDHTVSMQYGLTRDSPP", "experimental": "as §1"}, "[3]": {"target": "T32, RSK3(Kin.Dom.2-C-terminal) (Homo sapiens, UniProt Q15349)", "T32 construct": "RSK3(Kin.Dom.2-C-terminal); purchased Eurofins/DiscoverX KINOMEscan scanMAX", "T32 sequence (Q15349 415-672 limits assumed)": "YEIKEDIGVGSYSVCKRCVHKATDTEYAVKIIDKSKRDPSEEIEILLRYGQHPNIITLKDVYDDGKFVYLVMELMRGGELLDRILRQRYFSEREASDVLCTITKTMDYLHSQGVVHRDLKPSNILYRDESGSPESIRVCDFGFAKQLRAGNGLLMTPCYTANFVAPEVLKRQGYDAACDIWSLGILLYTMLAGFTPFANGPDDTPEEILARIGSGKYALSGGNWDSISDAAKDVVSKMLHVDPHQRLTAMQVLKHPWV", "experimental": "as §1"}, "RIPK1": {"target": "T33, RIPK1 (Homo sapiens, UniProt Q13546)", "T33 construct": "purchased Eurofins/DiscoverX KINOMEscan scanMAX", "experimental": "as §1"}, "ROCK1": {"target": "T34, ROCK1 (Homo sapiens, UniProt Q13464)", "T34 construct": "purchased Eurofins/DiscoverX KINOMEscan scanMAX", "experimental": "as §1"}, "NLK": {"target": "T35, NLK (Homo sapiens, UniProt Q9UBE8)", "T35 construct": "purchased Eurofins/DiscoverX KINOMEscan scanMAX", "experimental": "as §1"}, "TIE2": {"target": "T36, TIE2 (Homo sapiens, UniProt Q02763)", "T36 construct": "purchased Eurofins/DiscoverX KINOMEscan scanMAX", "T36 sequence (Q02763 23-1124)": "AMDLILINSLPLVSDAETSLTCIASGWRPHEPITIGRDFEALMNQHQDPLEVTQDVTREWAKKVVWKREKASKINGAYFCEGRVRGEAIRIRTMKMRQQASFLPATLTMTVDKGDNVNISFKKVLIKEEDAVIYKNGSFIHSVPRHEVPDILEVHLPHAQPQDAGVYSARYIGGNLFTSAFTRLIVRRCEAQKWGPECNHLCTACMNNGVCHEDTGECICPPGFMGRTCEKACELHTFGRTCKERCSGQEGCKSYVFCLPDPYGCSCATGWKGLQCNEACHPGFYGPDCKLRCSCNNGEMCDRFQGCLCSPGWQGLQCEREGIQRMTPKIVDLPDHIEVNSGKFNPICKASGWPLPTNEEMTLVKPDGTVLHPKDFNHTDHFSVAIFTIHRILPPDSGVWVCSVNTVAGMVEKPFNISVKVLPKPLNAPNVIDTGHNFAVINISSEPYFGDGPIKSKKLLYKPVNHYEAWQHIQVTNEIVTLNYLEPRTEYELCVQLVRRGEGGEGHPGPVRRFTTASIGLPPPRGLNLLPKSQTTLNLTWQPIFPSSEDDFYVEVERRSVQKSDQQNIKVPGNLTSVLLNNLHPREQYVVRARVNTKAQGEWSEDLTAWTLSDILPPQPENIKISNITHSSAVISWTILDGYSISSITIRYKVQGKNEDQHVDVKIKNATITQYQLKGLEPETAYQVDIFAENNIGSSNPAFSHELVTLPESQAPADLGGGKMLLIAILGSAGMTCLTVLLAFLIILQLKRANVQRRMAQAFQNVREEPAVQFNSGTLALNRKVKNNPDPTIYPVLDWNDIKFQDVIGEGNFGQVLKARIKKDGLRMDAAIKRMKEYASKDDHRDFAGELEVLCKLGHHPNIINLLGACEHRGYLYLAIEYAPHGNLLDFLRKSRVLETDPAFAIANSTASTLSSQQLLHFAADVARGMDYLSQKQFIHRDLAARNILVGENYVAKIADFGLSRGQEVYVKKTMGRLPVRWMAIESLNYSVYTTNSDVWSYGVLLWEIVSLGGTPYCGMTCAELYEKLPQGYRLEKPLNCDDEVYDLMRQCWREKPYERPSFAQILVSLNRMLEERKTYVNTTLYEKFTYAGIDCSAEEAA", "experimental": "as §1"}, "PYK2": {"target": "T37, PYK2 (Homo sapiens, UniProt Q14289)", "T37 construct": "purchased Eurofins/DiscoverX KINOMEscan scanMAX", "experimental": "as §1"}, "MST2": {"target": "T38, MST2 (Homo sapiens, UniProt Q13188)", "T38 construct": "purchased Eurofins/DiscoverX KINOMEscan scanMAX", "experimental": "as §1"}, "NEK10": {"target": "T39, NEK10 (Homo sapiens, UniProt Q6ZWH5)", "T39 construct": "purchased Eurofins/DiscoverX KINOMEscan scanMAX", "experimental": "as §1"}, "ULK3": {"target": "T40, ULK3 (Homo sapiens, UniProt Q6PHR2)", "T40 construct": "DNA tag (qPCR barcode); purchased Eurofins/DiscoverX KINOMEscan scanMAX", "T40 sequence (Q6PHR2 whole entry)": "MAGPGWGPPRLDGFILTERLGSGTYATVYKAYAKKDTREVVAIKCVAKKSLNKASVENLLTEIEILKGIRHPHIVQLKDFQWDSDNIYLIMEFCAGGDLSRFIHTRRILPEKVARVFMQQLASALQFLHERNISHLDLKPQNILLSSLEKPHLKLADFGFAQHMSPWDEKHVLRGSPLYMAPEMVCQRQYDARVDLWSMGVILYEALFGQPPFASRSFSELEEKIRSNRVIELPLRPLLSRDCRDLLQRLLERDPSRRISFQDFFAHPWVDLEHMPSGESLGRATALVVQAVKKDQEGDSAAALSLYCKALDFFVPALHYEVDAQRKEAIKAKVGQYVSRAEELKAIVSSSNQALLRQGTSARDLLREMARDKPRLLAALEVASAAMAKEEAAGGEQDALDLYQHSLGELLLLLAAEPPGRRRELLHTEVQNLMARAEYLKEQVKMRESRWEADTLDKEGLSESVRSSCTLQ", "experimental": "as §1"}, "EPHA4": {"target": "T41, EPHA4 (Homo sapiens, UniProt P54764)", "T41 construct": "purchased Eurofins/DiscoverX KINOMEscan scanMAX", "T41 sequence (P54764 20-986)": "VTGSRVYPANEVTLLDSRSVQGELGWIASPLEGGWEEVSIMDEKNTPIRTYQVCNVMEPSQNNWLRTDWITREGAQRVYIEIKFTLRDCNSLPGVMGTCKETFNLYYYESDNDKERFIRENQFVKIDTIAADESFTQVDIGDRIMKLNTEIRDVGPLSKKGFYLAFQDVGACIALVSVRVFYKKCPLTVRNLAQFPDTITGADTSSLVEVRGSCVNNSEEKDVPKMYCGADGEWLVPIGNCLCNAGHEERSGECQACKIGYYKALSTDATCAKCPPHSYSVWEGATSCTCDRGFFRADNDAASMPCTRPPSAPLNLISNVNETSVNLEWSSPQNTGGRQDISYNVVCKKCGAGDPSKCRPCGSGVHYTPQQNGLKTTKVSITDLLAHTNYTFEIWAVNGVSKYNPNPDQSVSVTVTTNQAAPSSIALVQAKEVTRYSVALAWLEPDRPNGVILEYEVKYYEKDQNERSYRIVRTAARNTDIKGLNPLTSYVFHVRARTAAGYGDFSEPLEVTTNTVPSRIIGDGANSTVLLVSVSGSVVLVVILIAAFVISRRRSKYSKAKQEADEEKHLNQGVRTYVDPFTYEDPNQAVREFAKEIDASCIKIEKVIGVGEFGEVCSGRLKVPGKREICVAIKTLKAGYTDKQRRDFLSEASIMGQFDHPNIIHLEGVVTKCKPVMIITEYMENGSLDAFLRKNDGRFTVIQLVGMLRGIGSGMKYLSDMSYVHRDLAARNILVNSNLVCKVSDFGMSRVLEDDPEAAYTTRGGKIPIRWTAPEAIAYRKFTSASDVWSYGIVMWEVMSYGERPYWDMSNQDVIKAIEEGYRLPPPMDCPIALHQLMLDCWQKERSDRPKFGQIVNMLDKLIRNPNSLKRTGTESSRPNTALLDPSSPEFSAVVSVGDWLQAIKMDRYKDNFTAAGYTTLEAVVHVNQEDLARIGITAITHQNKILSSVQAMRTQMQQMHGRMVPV", "experimental": "as §1"}, "ERK3": {"target": "T42, ERK3 (Homo sapiens, UniProt Q16659)", "T42 construct": "purchased Eurofins/DiscoverX KINOMEscan scanMAX", "experimental": "as §1"}}}
{"smiles": "CN1CCN(C2CCC(n3cc(-c4ccc(Oc5ccccc5)cc4)c4c(N)ncnc43)CC2)CC1", "note": "(stereo not drawn) [A-419259]", "values": [{"measurement": "% Control", "setting": "PHKG1", "result": 99, "unit": "%"}, {"measurement": "% Control", "setting": "PRKCE", "result": 88, "unit": "%"}, {"measurement": "% Control", "setting": "MEK4", "result": 89, "unit": "%"}, {"measurement": "% Control", "setting": "PRKG2", "result": 100, "unit": "%"}, {"measurement": "% Control", "setting": "WEE2", "result": 90, "unit": "%"}, {"measurement": "% Control", "setting": "MEK1", "result": 0.1, "unit": "%"}, {"measurement": "% Control", "setting": "CSNK1A1L", "result": 64, "unit": "%"}, {"measurement": "% Control", "setting": "TYRO3", "result": 66, "unit": "%"}, {"measurement": "% Control", "setting": "JNK3", "result": 99, "unit": "%"}, {"measurement": "% Control", "setting": "AURKB", "result": 100, "unit": "%"}, {"measurement": "% Control", "setting": "[1]", "result": 2.5, "unit": "%"}, {"measurement": "% Control", "setting": "MAP4K2", "result": 98, "unit": "%"}, {"measurement": "% Control", "setting": "PIM3", "result": 100, "unit": "%"}, {"measurement": "% Control", "setting": "p38-alpha", "result": 100, "unit": "%"}, {"measurement": "% Control", "setting": "CDC2L1", "result": 61, "unit": "%"}, {"measurement": "% Control", "setting": "SGK3", "result": 77, "unit": "%"}, {"measurement": "% Control", "setting": "ZAP70", "result": 100, "unit": "%"}, {"measurement": "% Control", "setting": "MRCKB", "result": 100, "unit": "%"}, {"measurement": "% Control", "setting": "AURKC", "result": 79, "unit": "%"}, {"measurement": "% Control", "setting": "PKMYT1", "result": 100, "unit": "%"}, {"measurement": "% Control", "setting": "EIF2AK1", "result": 99, "unit": "%"}, {"measurement": "% Control", "setting": "MST3", "result": 80, "unit": "%"}, {"measurement": "% Control", "setting": "PDGFRB", "result": 0, "unit": "%"}, {"measurement": "% Control", "setting": "AKT2", "result": 92, "unit": "%"}, {"measurement": "% Control", "setting": "TNK2", "result": 1.1, "unit": "%"}, {"measurement": "% Control", "setting": "LATS1", "result": 30, "unit": "%"}, {"measurement": "% Control", "setting": "TLK2", "result": 100, "unit": "%"}, {"measurement": "% Control", "setting": "[2]", "result": 0, "unit": "%"}, {"measurement": "% Control", "setting": "BRAF(V600E)", "result": 45, "unit": "%"}, {"measurement": "% Control", "setting": "FLT1", "result": 29, "unit": "%"}, {"measurement": "% Control", "setting": "LIMK2", "result": 91, "unit": "%"}, {"measurement": "% Control", "setting": "[3]", "result": 100, "unit": "%"}, {"measurement": "% Control", "setting": "RIPK1", "result": 100, "unit": "%"}, {"measurement": "% Control", "setting": "ROCK1", "result": 90, "unit": "%"}, {"measurement": "% Control", "setting": "NLK", "result": 83, "unit": "%"}, {"measurement": "% Control", "setting": "TIE2", "result": 15, "unit": "%"}, {"measurement": "% Control", "setting": "PYK2", "result": 88, "unit": "%"}, {"measurement": "% Control", "setting": "MST2", "result": 82, "unit": "%"}, {"measurement": "% Control", "setting": "NEK10", "result": 100, "unit": "%"}, {"measurement": "% Control", "setting": "ULK3", "result": 84, "unit": "%"}, {"measurement": "% Control", "setting": "EPHA4", "result": 100, "unit": "%"}, {"measurement": "% Control", "setting": "ERK3", "result": 100, "unit": "%"}]}
